# According to ChEMBL document CHEMBL4673325, “Identification of 2-substituted pyrrolo[1,2-b]pyridazine derivatives as new PARP-1 inhibitors” (Bioorg Med Chem Lett, 2021):
# How the values were obtained:
# [1] = biological target: Poly [ADP-ribose] polymerase 2 (Homo sapiens, UniProt Q9UGN5); experiment: Inhibition of PARP-2 (unknown origin)
# [2] = biological target: Poly [ADP-ribose] polymerase 1 (Homo sapiens, UniProt P09874); experiment: Inhibition of PARP-1 (unknown origin)
# Homo sapiens = species: Homo sapiens; experiment: Selectivity index, ratio of IC50 for PARP-2 (unknown origin) to IC50 for PARP-1 (unknown origin)
# MDA-MB-436 [3] = experiment: Antiproliferative activity against BRCA1 deficient human MDA-MB-436 cells; assay type: functional
# [4] = Antiproliferative activity against BRCA2 deficient chinese hamster V-C8 cells; assay type: functional, Cricetulus griseus
# MDA-MB-436 [5] = experiment: Antitumor activity against human MDA-MB-436 cells harboring BRCA1 mutation xenografted in mouse assessed as tumor growth inhibition administered orally for 21 days; assay type: functional; settings: time 21.0 day
# Poly [ADP-ribose] polymerase 1, sequence (P09874 whole entry): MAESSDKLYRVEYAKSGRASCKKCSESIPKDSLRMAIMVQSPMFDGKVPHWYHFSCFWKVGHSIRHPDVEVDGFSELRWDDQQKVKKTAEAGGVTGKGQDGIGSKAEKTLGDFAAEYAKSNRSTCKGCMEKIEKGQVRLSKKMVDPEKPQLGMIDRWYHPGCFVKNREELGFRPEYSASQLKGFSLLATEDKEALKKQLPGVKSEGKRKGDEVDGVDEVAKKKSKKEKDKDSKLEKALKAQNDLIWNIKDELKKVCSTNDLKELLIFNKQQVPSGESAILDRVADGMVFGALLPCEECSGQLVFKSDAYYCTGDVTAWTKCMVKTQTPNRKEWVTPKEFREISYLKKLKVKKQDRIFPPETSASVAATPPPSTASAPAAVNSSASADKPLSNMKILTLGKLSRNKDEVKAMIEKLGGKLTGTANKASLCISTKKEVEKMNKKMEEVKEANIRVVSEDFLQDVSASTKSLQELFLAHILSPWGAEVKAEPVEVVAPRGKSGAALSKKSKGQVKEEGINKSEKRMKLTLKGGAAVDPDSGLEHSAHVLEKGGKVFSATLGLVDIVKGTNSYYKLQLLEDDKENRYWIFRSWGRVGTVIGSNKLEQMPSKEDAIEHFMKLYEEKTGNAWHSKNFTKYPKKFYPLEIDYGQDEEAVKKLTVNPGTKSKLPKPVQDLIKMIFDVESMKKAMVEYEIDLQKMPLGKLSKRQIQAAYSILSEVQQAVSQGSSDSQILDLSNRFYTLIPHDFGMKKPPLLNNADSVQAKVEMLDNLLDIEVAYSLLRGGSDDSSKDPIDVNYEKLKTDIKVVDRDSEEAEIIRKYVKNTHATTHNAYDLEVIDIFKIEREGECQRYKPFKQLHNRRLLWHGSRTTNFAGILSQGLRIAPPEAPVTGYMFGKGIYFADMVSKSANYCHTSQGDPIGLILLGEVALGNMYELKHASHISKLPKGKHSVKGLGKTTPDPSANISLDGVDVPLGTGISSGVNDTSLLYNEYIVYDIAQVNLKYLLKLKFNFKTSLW
# Poly [ADP-ribose] polymerase 2, sequence (Q9UGN5 whole entry): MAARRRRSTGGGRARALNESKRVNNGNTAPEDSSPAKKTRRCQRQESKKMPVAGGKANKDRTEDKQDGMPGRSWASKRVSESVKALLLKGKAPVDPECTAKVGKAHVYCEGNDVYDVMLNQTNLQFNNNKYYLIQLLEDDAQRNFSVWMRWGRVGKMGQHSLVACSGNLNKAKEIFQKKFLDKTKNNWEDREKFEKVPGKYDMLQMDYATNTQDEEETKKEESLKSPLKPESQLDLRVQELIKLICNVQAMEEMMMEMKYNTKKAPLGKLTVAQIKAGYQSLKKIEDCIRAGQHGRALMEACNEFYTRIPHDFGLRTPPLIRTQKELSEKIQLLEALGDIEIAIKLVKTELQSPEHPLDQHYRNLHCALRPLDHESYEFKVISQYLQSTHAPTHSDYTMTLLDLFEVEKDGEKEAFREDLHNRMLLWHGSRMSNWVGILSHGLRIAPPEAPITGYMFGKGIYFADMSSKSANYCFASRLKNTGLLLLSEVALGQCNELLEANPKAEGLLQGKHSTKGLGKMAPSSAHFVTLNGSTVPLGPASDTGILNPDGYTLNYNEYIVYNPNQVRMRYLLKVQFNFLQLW
Structure (SMILES),IC50 [1] [µM],IC50 [2] [µM],Ratio IC50 (Homo sapiens),"CC50 (MDA-MB-436 [3]; Homo sapiens, MDA-MB-436) [µM]","CC50 ([4]; Cricetulus griseus, V-C8) [µM]",TGI (MDA-MB-436 [5]),CC50 (MDA-MB-436 [3]) [µM],CC50 [4] [µM]
COC1CCN(C(=O)c2ccc(-c3ccc4c(Cl)cc(C(N)=O)n4n3)c(F)c2)C1 (centres undefined),1.59,0.661,2.4,–,–,–,–,–
NC(=O)c1cc(Cl)c2ccc(-c3ccc(CN4CCN(c5ccc(C(F)(F)F)cc5)CC4)cc3)nn12,0.445,3.33,0.13,8.09,> 10,–,–,–
COC1CCN(C(=O)c2ccc(-c3ccc4c(Cl)cc(C(N)=O)n4n3)c(F)c2)CC1,1.64,0.114,8.9,–,–,–,–,–
CN(C)C1CCN(Cc2ccc(-c3ccc4c(Cl)cc(C(N)=O)n4n3)cc2)CC1,1.13,0.818,1.4,5.48,2.78,–,–,–
CN1CCc2sc(-c3ccc4c(Cl)cc(C(N)=O)n4n3)cc2C1,0.363,0.157,2.3,3.05,2.64,–,–,–
CNCc1ccc(-c2ccc3c(Cl)cc(C(N)=O)n3n2)cc1,1.12,0.249,4.5,1.28,2,–,–,–
CC(C)(C)C1NCCc2cc(-c3ccc4c(Cl)cc(C(N)=O)n4n3)sc21 (centres undefined),1,1.03,0.97,1.46,2.04,–,–,–
NC(=O)c1cc(Cl)c2ccc(-c3ccc(C(=O)N4CCN(C(=O)C5CC5)CC4)cc3)nn12,1.1,0.443,2.5,9.54,2.48,–,–,–
CCN(CC)Cc1ccc(-c2ccc3c(Cl)cc(C(N)=O)n3n2)cc1,2.2,0.433,5.1,3.73,3.51,–,–,–
NC(=O)c1cc(Cl)c2ccc(-c3ccc(CN4CCN(C5CC5)CC4)cc3)nn12,0.997,1.08,0.92,75.2,> 10,–,–,–
CN1CCc2cc(-c3ccc4c(Cl)cc(C(N)=O)n4n3)sc2C1,0.382,0.141,2.7,2.58,3.62,–,–,–
NC(=O)c1cc(Cl)c2ccc(-c3ccc(F)c(C(=O)N4CCN(C(=O)C5CC5)CC4)c3)nn12,1.92,0.166,11.6,–,7.03,–,–,–
NC(=O)c1cc(Cl)c2ccc(-c3ccc(C(=O)N4CCN(C(=O)C5CC5)CC4)cc3F)nn12,2.32,0.219,10.7,2.95,2.31,–,–,–
COC1CCN(C(=O)c2ccc(-c3ccc4c(Cl)cc(C(N)=O)n4n3)cc2)CC1,4.51,3.51,1.28,–,4.42,–,–,–
CN(C)Cc1ccc(-c2ccc3c(Cl)cc(C(N)=O)n3n2)cc1,0.705,0.0933,7.5,0.687,6.2,–,–,–
NC(=O)c1cc(Cl)c2ccc(-c3ccc(CN4CCNCC4)cc3)nn12,2.33,0.627,3.7,9.67,–,–,–,–
CC(C)CC(=O)N1CCN(C(=O)c2ccc(-c3ccc4c(Cl)cc(C(N)=O)n4n3)cc2)CC1,1.01,0.502,2,3.84,5.75,–,–,–
NC(=O)c1cc(Cl)c2ccc(-c3cc4c(s3)CCNC4)nn12,0.209,0.00724,–,0.214,1.33,–,–,–
NC(=O)c1cc(Cl)c2cc(-c3cc4c(s3)CNCC4)cnn12,–,–,–,–,–,Dose-dependent effect,–,–
CC(C)N1CCN(Cc2ccc(-c3ccc4c(Cl)cc(C(N)=O)n4n3)cc2)CC1,1.44,0.369,3.9,3.55,2.7,–,–,–
O=C(c1cc(Cc2n[nH]c(=O)c3ccccc23)ccc1F)N1CCN(C(=O)C2CC2)CC1 [OLAPARIB],–,–,–,–,–,–,0.0114,0.4
NC(=O)c1cc(Cl)c2ccc(-c3ccc(CN4CCCC4)cc3)nn12,1.12,0.432,2.6,5.4,2.15,–,–,–
COC1CCN(C(=O)c2ccc(-c3ccc4c(Cl)cc(C(N)=O)n4n3)cc2)C1 (centres undefined),1.71,0.362,4.74,9.64,–,–,–,–
NC(=O)c1cc(Cl)c2ccc(-c3ccc(C(=O)N4CCNCC4)cc3)nn12,1.01,0.34,3,8.09,> 10,–,–,–
